The target in this test is T1, EPOR (erythropoietin receptor), human recombinant, NSO cells (Homo sapiens, UniProt P19235).
T1 construct: host or cells: NSO cells
T1 sequence (P19235 25-250 limits assumed): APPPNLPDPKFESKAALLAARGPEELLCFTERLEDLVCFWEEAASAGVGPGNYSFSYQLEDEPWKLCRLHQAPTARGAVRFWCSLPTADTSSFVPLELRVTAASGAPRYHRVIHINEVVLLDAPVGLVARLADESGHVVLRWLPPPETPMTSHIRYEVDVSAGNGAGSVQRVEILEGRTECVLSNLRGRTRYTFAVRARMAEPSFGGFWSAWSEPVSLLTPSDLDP
The test can be described thus: EPOR radioligand binding assay ([125I] Erythropoietin competition). To be noted: for Ki (AC-0005-002)/Ki: Ki relative to that of AC-0005-002; for Ki/Ki(EPO): Ki relative to that of EPO. Here is the method:
IC50 values were determined by a non-linear, least squares regression analysis using MATHIQ™ (computer software for integrating mathematical functions into new or existing software). […] Where presented, the Hill coefficient (nH), defining the slope of the competitive binding curve, was calculated using MATHIQ™.

The mark [1] stands for this setting: Example 1, mimetics varied in N-end, loop and mid sequences.
[2] abbreviates: Example 2, mimetics varied in loop, mid and C-end.

Molecules are shown by their SMILES.

As to `CC[C@H](C)[C@@H]1NC(=O)[C@@H]2CCCN2C(=O)CNC(=O)[C@H](CCSC)NC(=O)[C@H](Cc2c[nH]cn2)NC(=O)C(NC(=O)[C@H](C)NC(=O)[C@H](Cc2ccc(O)cc2)NC(=O)[C@H](CC(C)C)NC(C)=O)CCOCC(C(=O)N[C@@H](CCC(N)=O)C(=O)N2CCC[C@H]2C(=O)NCCCCC(=O)NCCCCC(NC(=O)[C@@H]2CCCN2C(=O)[C@H](CCC(N)=O)NC(=O)C2COCCC(NC(=O)[C@H](C)NC(=O)[C@H](Cc3ccc(O)cc3)NC(=O)[C@H](CC(C)C)NC(C)=O)C(=O)N[C@@H](Cc3c[nH]cn3)C(=O)N[C@@H](CCSC)C(=O)NCC(=O)N3CCC[C@H]3C(=O)N[C@@H]([C@@H](C)CC)C(=O)N[C@@H]([C@@H](C)O)C(=O)N[C@@H](Cc3cccc4ccccc34)C(=O)N[C@@H](C(C)C)C(=O)N2)C(N)=O)NC(=O)[C@H](C(C)C)NC(=O)[C@H](Cc2cccc3ccccc23)NC(=O)[C@H]([C@@H](C)O)NC1=O` (some centres unmarked) [AC-0005-007], for the setting “Example 4, first table”, the IC50 was 4950 nM and the inhibitory constant (Ki) is 2350 nM.

Turning to `CSCC[C@@H]1NC(=O)[C@H](CCCNC(=N)N)NC(=O)C(NC(=O)[C@H](CC(C)C)NC(=O)[C@H](Cc2ccc(O)cc2)NC(=O)[C@H](CC(N)=O)NC(C)=O)CCOCC(C(=O)N[C@@H](CCCCN)C(=O)N2CCC[C@H]2C(=O)NCCCCC(=O)NCCCCC(NC(=O)[C@@H]2CCCN2C(=O)[C@H](CCCCN)NC(=O)C2COCCC(NC(=O)[C@H](CC(C)C)NC(=O)[C@H](Cc3ccc(O)cc3)NC(=O)[C@H](CC(N)=O)NC(C)=O)C(=O)N[C@@H](CCCNC(=N)N)C(=O)N[C@@H](CCSC)C(=O)N[C@@H](Cc3ccccc3)C(=O)N[C@@H](Cc3c[nH]c4ccccc34)C(=O)N[C@@H](C(C)C)C(=O)N2)C(N)=O)NC(=O)[C@H](C(C)C)NC(=O)[C@H](Cc2c[nH]c3ccccc23)NC(=O)[C@H](Cc2ccccc2)NC1=O` (some centres unmarked) [AC-0005-022], the inhibition constant (Ki) under setting [1] turned out to be 17 nM. In addition, the IC50 (Example 4, fourth table) was 36 nM.

As for `CSCC[C@@H]1NC(=O)[C@H](CCCNC(=N)N)NC(=O)C(NC(=O)[C@H](CC(C)C)NC(=O)[C@H](Cc2ccc(O)cc2)NC(=O)[C@H](CC(N)=O)NC(C)=O)CCOCC(C(=O)N[C@@H](CCCCNC(=N)N)C(=O)N2CCC[C@H]2C(=O)NCCCCC(=O)NCCCCC(NC(=O)[C@@H]2CCCN2C(=O)[C@H](CCCCNC(=N)N)NC(=O)C2COCCC(NC(=O)[C@H](CC(C)C)NC(=O)[C@H](Cc3ccc(O)cc3)NC(=O)[C@H](CC(N)=O)NC(C)=O)C(=O)N[C@@H](CCCNC(=N)N)C(=O)N[C@@H](CCSC)C(=O)NCC(=O)N[C@@H](Cc3c[nH]c4ccccc34)C(=O)N[C@@H](C(C)C)C(=O)N2)C(N)=O)NC(=O)[C@H](C(C)C)NC(=O)[C@H](Cc2c[nH]c3ccccc23)NC(=O)CNC1=O` (some centres unmarked) [AC-0005-021], under setting [1], the Ki turned out to be 12 nM. Also, the IC50 (Example 4, fourth table) came out at 25 nM.

Take `CSCC[C@@H]1NC(=O)[C@H](CCCNC(=N)N)NC(=O)C(NC(=O)[C@H](CC(C)C)NC(=O)[C@H](Cc2ccc(O)cc2)NC(=O)[C@H](CC(N)=O)NC(C)=O)CCOCC(C(=O)N[C@@H](CCCCN)C(=O)N2CCC[C@H]2C(=O)NCCCCC(=O)NCCCCC(NC(=O)[C@@H]2CCCN2C(=O)[C@H](CCCCN)NC(=O)C2COCCC(NC(=O)[C@H](CC(C)C)NC(=O)[C@H](Cc3ccc(O)cc3)NC(=O)[C@H](CC(N)=O)NC(C)=O)C(=O)N[C@@H](CCCNC(=N)N)C(=O)N[C@@H](CCSC)C(=O)NCCC(=O)N[C@@H](Cc3c[nH]c4ccccc34)C(=O)N[C@@H](C(C)C)C(=O)N2)C(N)=O)NC(=O)[C@H](C(C)C)NC(=O)[C@H](Cc2c[nH]c3ccccc23)NC(=O)CCNC1=O` (some centres unmarked) [AC-0005-019]: under setting [1], the inhibition constant Ki is 27 nM. Also, the IC50 (Example 4, second table) amounted to 57 nM.

On to `CSCC[C@@H]1NC(=O)[C@H](CCCNC(=N)N)NC(=O)C(NC(=O)[C@H](CC(C)C)NC(=O)[C@H](Cc2ccc(O)cc2)NC(=O)[C@H](CC(N)=O)NC(C)=O)CCOCC(C(=O)N[C@@H](CCCCNC(=N)N)C(=O)N2CCC[C@H]2C(=O)NC(CCCCNC(=O)CCCC(NC(=O)[C@@H]2CCCN2C(=O)[C@H](CCCCNC(=N)N)NC(=O)C2COCCC(NC(=O)[C@H](CC(C)C)NC(=O)[C@H](Cc3ccc(O)cc3)NC(=O)[C@H](CC(N)=O)NC(C)=O)C(=O)N[C@@H](CCCNC(=N)N)C(=O)N[C@@H](CCSC)C(=O)N3CCC[C@H]3C(=O)N[C@@H](Cc3ccc4ccccc4c3)C(=O)N[C@@H](C(C)C)C(=O)N2)C(=O)NCCC(=O)N[C@@H](CCCNC(=N)N)C(N)=O)C(=O)NCCC(=O)N[C@@H](CCCNC(=N)N)C(N)=O)NC(=O)[C@H](C(C)C)NC(=O)[C@H](Cc2ccc3ccccc3c2)NC(=O)[C@@H]2CCCN2C1=O` (some centres unmarked) [AC-0005-063], for which the Ki under setting [2] was 1 nM. Further, where the note is “Example 4, sixth table”, the half-inhibitory concentration (IC50) came to 2.2 nM.

For the molecule `CSCC[C@@H]1NC(=O)[C@H](CCCNC(=N)N)NC(=O)C(NC(=O)[C@H](CC(C)C)NC(=O)[C@H](Cc2ccc(O)cc2)NC(=O)[C@H](CC(N)=O)NC(C)=O)CCOCC(C(=O)N[C@@H](CCCNC(=N)N)C(=O)N2CCC[C@H]2C(=O)NCCCCC(=O)NCCCCC(NC(=O)[C@@H]2CCCN2C(=O)[C@H](CCCNC(=N)N)NC(=O)C2COCCC(NC(=O)[C@H](CC(C)C)NC(=O)[C@H](Cc3ccc(O)cc3)NC(=O)[C@H](CC(N)=O)NC(C)=O)C(=O)N[C@@H](CCCNC(=N)N)C(=O)N[C@@H](CCSC)C(=O)NCC(=O)N[C@@H](Cc3c[nH]c4ccccc34)C(=O)N[C@@H](C(C)C)C(=O)N2)C(N)=O)NC(=O)[C@H](C(C)C)NC(=O)[C@H](Cc2c[nH]c3ccccc23)NC(=O)CNC1=O` (some centres unmarked) [AC-0005-020], the Ki under setting [1] was 44 nM. Moreover, the half-maximal inhibitory concentration (IC50) (Example 4, fourth table) was 93 nM.

Turning to `CC[C@H](C)[C@@H]1NC(=O)[C@@H]2CCCN2C(=O)CNC(=O)[C@H](CCSC)NC(=O)[C@H](CCCNC(=N)N)NC(=O)C(NC(=O)[C@H](C)NC(=O)[C@H](Cc2ccc(O)cc2)NC(=O)[C@H](CC(C)C)NC(C)=O)CCOCC(C(=O)NCCCCC(=O)NCCCCC(NC(=O)C2COCCC(NC(=O)[C@H](C)NC(=O)[C@H](Cc3ccc(O)cc3)NC(=O)[C@H](CC(C)C)NC(C)=O)C(=O)N[C@@H](CCCNC(=N)N)C(=O)N[C@@H](CCSC)C(=O)NCC(=O)N3CCC[C@H]3C(=O)N[C@@H]([C@@H](C)CC)C(=O)N[C@@H]([C@@H](C)O)C(=O)N[C@@H](Cc3cccc4ccccc34)C(=O)N[C@@H](C(C)C)C(=O)N2)C(N)=O)NC(=O)[C@H](C(C)C)NC(=O)[C@H](Cc2cccc3ccccc23)NC(=O)[C@H]([C@@H](C)O)NC1=O` (some centres unmarked) [AC-0005-008], the IC50 (Example 4, first table) is above 10000 nM.

Take `CSCC[C@@H]1NC(=O)[C@H](CCCNC(=N)N)NC(=O)C(NC(=O)[C@H](CC(C)C)NC(=O)[C@H](Cc2ccc(O)cc2)NC(=O)[C@H](CC(N)=O)NC(C)=O)CCOCC(C(=O)N[C@@H](CCCCN)C(=O)N2CCC[C@H]2C(=O)NCCCCC(=O)NCCCCC(NC(=O)[C@@H]2CCCN2C(=O)[C@H](CCCCN)NC(=O)C2COCCC(NC(=O)[C@H](CC(C)C)NC(=O)[C@H](Cc3ccc(O)cc3)NC(=O)[C@H](CC(N)=O)NC(C)=O)C(=O)N[C@@H](CCCNC(=N)N)C(=O)N[C@@H](CCSC)C(=O)N3CCC[C@H]3C(=O)N[C@@H](Cc3c[nH]c4ccccc34)C(=O)N[C@@H](C(C)C)C(=O)N2)C(N)=O)NC(=O)[C@H](C(C)C)NC(=O)[C@H](Cc2c[nH]c3ccccc23)NC(=O)[C@@H]2CCCN2C1=O` (some centres unmarked) [AC-0005-026]: the Ki by setting is: under setting [1], 5.9 nM; under setting [2], 4.3 nM; (Example 3, Cheng-Prusoff) 6.39 nM; (Example 4, sixth table) 4.3 nM. In addition, the IC50 (Example 3) worked out at 13.5 nM; the IC50 (Example 4, fifth table) turned out to be 12.4 nM; the IC50 (Example 4, fourth table) stood at 20 nM; the concentration for half-maximal inhibition (IC50) (Example 4, sixth table) was 9 nM.

On to `CSCC[C@@H]1NC(=O)[C@H](CCCNC(=N)N)NC(=O)C(NC(=O)[C@H](CC(C)C)NCOCCCO)CCOCC(C(=O)N[C@@H](CCCCNC(=N)N)C(=O)N2CCC[C@H]2C(=O)NCCCCC(=O)NCCCCC(NC(=O)[C@@H]2CCCN2C(=O)[C@H](CCCCNC(=N)N)NC(=O)C2COCCC(NC(=O)[C@H](CC(C)C)NCOCCCO)C(=O)N[C@@H](CCCNC(=N)N)C(=O)N[C@@H](CCSC)C(=O)N3CCC[C@H]3C(=O)N[C@@H](Cc3c[nH]c4ccccc34)C(=O)N[C@@H](C(C)C)C(=O)N2)C(N)=O)NC(=O)[C@H](C(C)C)NC(=O)[C@H](Cc2c[nH]c3ccccc23)NC(=O)[C@@H]2CCCN2C1=O` (some centres unmarked) [AC-0005-053], for which the “NH (Hill coefficient)” value (Example 3, slope of competitive binding curve) worked out at 1.86. Moreover, under “Example 4, fifth table”, the “Ki (AC-0005-002)/Ki” value is reported as 403 and the “Ki/Ki(EPO)” value was determined as 120.

`CCN[C@@H](CC(N)=O)C(=O)N[C@@H](Cc1ccc(O)cc1)C(=O)N[C@@H](CC(C)C)C(=O)NC1CCOCC(C(=O)N[C@@H](CCCCNC(=N)N)C(=O)N2CCC[C@H]2C(=O)NC(CCCC(=O)NCCCCC(NC(=O)[C@@H]2CCCN2C(=O)[C@H](CCCCNC(=N)N)NC(=O)C2COCCC(NC(=O)[C@H](CC(C)C)NC(=O)[C@H](Cc3ccc(O)cc3)NC(=O)[C@H](CC(N)=O)NC(C)=O)C(=O)N[C@@H](CCCNC(=N)N)C(=O)N[C@@H](CCSC)C(=O)N3CCC[C@H]3C(=O)N[C@@H](Cc3ccc4ccccc4c3)C(=O)N[C@@H](C(C)C)C(=O)N2)C(=O)N[C@@H](CCCNC(=N)N)C(N)=O)C(=O)N[C@@H](CCCNC(=N)N)C(N)=O)NC(=O)[C@H](C(C)C)NC(=O)[C@H](Cc2ccc3ccccc3c2)NC(=O)[C@@H]2CCCN2C(=O)[C@H](CCSC)NC(=O)[C@H](CCCNC(=N)N)NC1=O` (some centres unmarked) [AC-0005-060]: under “Example 4, sixth table”, the “Ki (AC-0005-002)/Ki” value is reported as 195 and the “Ki/Ki(EPO)” value is 330.

Source of the values: patent US9422338B2 (EpoDose LLC, priority 2011, dated 2016).
